The values that follow come from ChEMBL document CHEMBL3507680, “University of Dundee, Gates Library screen for HepG2 cell viability”.

Each structure is given as a SMILES string.

A short description of this series: Human HepG2 cell viability assay in 384 well format. The format is toxicity, cell-based. The arrangement: dose 125 nL, time 70.5 hour; cytotoxicity at 70.5 h: concentration not given beside the values. Conditions: HepG2 cells, read-out: Inhibition.
In the case of `COc1ccc(CN2Cc3cnn(C)c3C(COCC3CC3)C2)cc1` (configuration not stated), the cytotoxicity at 70.5 h was -1.5%.
Then `CCc1ccc(CN2CCc3[nH]nc(C(=O)N4CCNC(=O)C4)c3C2)o1`, with -11.8%.
Then `Cc1cccc(N2CCOCC3(C2)CN(c2ccccc2)C(=O)CO3)n1` (configuration not stated), with -4.51%; and `Cc1nn(C)c(C)c1CC(=O)NCc1ccnc(OC2CCCC2)c1`, with -5.31%.
Then `COC(=O)CCCC(=O)N(C)CC1Cc2ccccc2CN1C` (configuration not stated), with -8.82%; and `CC(NCCCN1CCCC1=O)c1ccc(F)cc1N(C)C` (configuration not stated), with -4.56%.
As to `CCc1nc(N2CCCN(c3ncccn3)CC2)c2cnn(C)c2n1`, the cytotoxicity at 70.5 h is -7.44%.
Regarding `CN(CC1CCCCO1)c1nncc(-c2cccc(F)c2)n1` (configuration not stated), the cytotoxicity at 70.5 h is -3.62%.
Then `CN1CC[C@H]2OCC[C@@H](C(=O)NCc3ccco3)[C@@H]2C1`, with 9.03%; and `CSCCC(C)NC(=O)CCN1C(=O)CCc2cc(F)ccc21` (configuration not stated), with -4.19%; and `Cc1ccc2cc(C(=O)N3CCS(=O)(=O)CC3)[nH]c2c1`, with -12.3%.
Then `CCn1ccnc1CN1CCN(CCOc2ccccc2OC)CC1`, with 7.36%.
With `CCO[C@H]1CO[C@@]2(CCN(Cc3ccc4c(c3)OCO4)C2)C1` the figure was -9.21%; with `Cc1ccc2c(c1)[C@@H](CC(=O)N(C)C)CCO2`, -2.63%; with `CN(C)C(=O)Cn1c2c(ccc1=O)CC(NCc1cccnc1)CC2` (configuration not stated), -10.4%.
Consider `O=C(C[S+]([O-])Cc1ccc(F)cc1Cl)N1CCc2sccc2C1` (configuration not stated), for which the cytotoxicity at 70.5 h was -6.4%.
With `Cc1ccccc1CS(=O)(=O)CC(=O)N(C)Cc1ccccc1` the figure was -9.59%.
With `Cc1cn2c(n1)C(CNCC1=Cc3cc(Cl)ccc3OC1)CCC2` (configuration not stated) the figure was 3.13%; with `COCCN1C(=O)[C@]2(CC[C@@H]3CN(C(=O)NCC(C)C)C[C@@H]32)N=C1C`, -10%.
With `Cn1cccc1C(=O)N1CCC2(CCCN2S(C)(=O)=O)CC1`, the cytotoxicity at 70.5 h was -8.2%.
For `Cc1cccc2nc(CNCc3cccc4c3OCCCO4)cn12`, the cytotoxicity at 70.5 h is -0.513%.
Then `CCOc1ccc(Cl)c(C(=O)NC(C)C(N)=O)n1` (configuration not stated), with -5.7%; and `Cc1ccc(C)c(CC(=O)Nc2cnccc2SCCCO)c1`, with 23.5%; and `CCS(=O)(=O)CC(=O)Nc1cccc2c1CN(CC(C)C)C2`, with -0.0392%.
Then `COc1ccccc1OCc1cc(C(=O)N2CCN[C@H](C)C2)n[nH]1`, with -5.99%; and `CC(NC(=O)C(C)(C)C#N)c1ccc(OCC2CC2)c(F)c1` (configuration not stated), with -6.52%; and `CCNc1nc(C)c(C(=O)N2CCN(c3ncccc3C)CC2)s1`, with -4.75%.
With `CN(C)C(=O)CO[C@H]1CN(Cc2nccs2)[C@@H]2COC[C@H]12` the figure was -9.59%.
Take `CC1c2ncc(CN3CCN(C)CC3)n2CCN1Cc1ccccn1` (configuration not stated): the cytotoxicity at 70.5 h was -0.798%.
In the case of `COc1c(CNCc2ccc(C(=O)N(C)C(C)C)cc2)c(C)nn1C`, the cytotoxicity at 70.5 h was 34.2%.
Consider `Cc1ccc(C(=O)N2CCC3(CC2)CN(CCN(C)C)C(=O)O3)c(F)c1`, for which the cytotoxicity at 70.5 h worked out at 7.08%.
Then `Cn1cnnc1C1CCCN(C(=O)NCCCn2cccn2)C1` (configuration not stated), with -2.61%; and `COCCN1CC(O)CN(C(=O)c2cccc(C(F)(F)F)c2)CC1=O` (configuration not stated), with -0.767%.
As for `Cc1cnc2n(c1=O)C(CC(=O)NCc1cccs1)CS2` (configuration not stated), the cytotoxicity at 70.5 h turned out to be 0.951%.
With `Cc1cn2nc(N3CCCCC3Cn3cccn3)sc2n1` (configuration not stated) the figure was 22.5%.
With `COc1cc(C(N)=O)c(N(C)S(C)(=O)=O)cc1OC` the figure was -9.06%; with `O=C(c1ccnnc1)N1C[C@@H]2C[C@@H](c3nc(C4CC4)cs3)O[C@@H]2C1`, -3.56%; with `Cc1cccn2c(NC(C)(C)C)c(C3CCN(C(=O)C4CC4)CC3)nc12`, -6.96%.
With `COCC(O)CN1CCC(NC(=O)c2ccccc2Cl)CC1` (configuration not stated) the figure was -0.503%; with `O=C(CN1C(=O)CCC1=O)NCCc1nc(C2CC2)cc(C(F)(F)F)n1`, 31.4%; with `c1csc(CN2CCC3(CCCN3CC3CC3)CC2)n1`, -4.63%.
`CC(C)N1CCc2c(CNC(=O)c3nccn3C)cncc2C1`: the cytotoxicity at 70.5 h was -4.9%.
With `COc1cccc2c1OCC(C(=O)NCCc1nnc(N)s1)C2` (configuration not stated) the figure was -5.75%.
With `CCN1CCN(S(=O)(=O)c2cc(C)c(C)cc2Br)CC1`, the cytotoxicity at 70.5 h is -6.61%.
With `COc1ccc(CN2CCN(C(C)=O)CC2)cc1SC(F)(F)F` the figure was 0.0728%; with `Cc1cnn(C2CCCN(C(=O)c3cccc(Cn4ccnc4)c3)C2)c1` (configuration not stated), 20.1%.
Then `CC(C)(C)n1cc(C(=O)NCCCn2ccnc2)c2cccnc21`, with -4.7%.
With `CCCn1ncc(C(=O)N2CCN([C@H]3CCCC[C@@H]3O)CC2)c1C` the figure was -0.657%; with `COc1ccc(CN(CC2CCCO2)C(=O)CN2CCOC2=O)cc1` (configuration not stated), -14.7%.
For `CCCNC(=O)c1nc2c(o1)CN(C(C)=O)C2`, the cytotoxicity at 70.5 h is -9.4%.
For the compound `Cc1ccc(C(CNC(=O)Cc2nc3ncccn3n2)N(C)C)cc1` (configuration not stated), the cytotoxicity at 70.5 h was -10.7%.
With `CC(=O)N1CCCC(c2ccc(CO)c(-c3c(C)noc3C)n2)C1` (configuration not stated) the figure was 27.2%; with `CC(C)S(=O)(=O)NCc1cccnc1Oc1ccc(F)cc1F`, 1.03%.
Then `O=C(c1cncs1)N1CCOC(c2cc(CCO)[nH]n2)C1` (configuration not stated), with -7.42%; and `O=C(Nc1cccnc1N1CCSCC1)c1cc2c(s1)CCCCC2`, with -6.67%.
With `COCCN1C(=O)CC[C@@H]2[C@H]1CCN2S(=O)(=O)c1cccs1` the figure was 20.8%.
`COCCOc1ccc(NC(=O)N(C)Cc2ccsc2)cn1`: the cytotoxicity at 70.5 h came to 3.32%.
Then `COc1ccc(CN2C[C@@H]3COC[C@]3(COc3cccnc3)C2)cc1`, with -7.11%; and `CC(C)(C)c1nc(CN2CCC3(CCCO3)CCC2=O)no1` (configuration not stated), with -5.98%; and `Cn1cnc(S(=O)(=O)NCC(C)(O)c2ccc3c(c2)OCO3)c1` (configuration not stated), with -6.14%.
Consider `O=C(c1cscn1)N1CC[C@@H]2[C@@H]1CCN2C1CCOCC1`, for which the cytotoxicity at 70.5 h is -3.43%.
With `CCN(Cc1ccc(OC)c(F)c1)Cc1nc2c(cnn2C)c(=O)[nH]1` the figure was -1.49%; with `CCCn1nc(C)c(C(=O)N[C@@H]2CC[C@@H](N3CCCC3)[C@@H]2O)c1C`, -6.2%.
Then `Cc1cc(C)n(CC(C)NC(=O)C2(c3ccc(F)cc3)CC2)n1` (configuration not stated), with -10.8%; and `CN(CCCNC(=O)Nc1ccc(C#N)cc1)CC(F)(F)F`, with 40.9%.
Then `C/C=C(\C)CN1C[C@@H](NC(=O)c2ccc(O)c(Cl)c2)C[C@H]1C(=O)NCC`, with -11%; and `Cc1c[nH]c(C2COCCN2C(=O)c2ccc(=O)[nH]n2)n1` (configuration not stated), with -4.98%.
On to `CN(C)S(=O)(=O)c1ccc(=O)n(CC2CCCO2)c1` (configuration not stated), for which the cytotoxicity at 70.5 h is -1.56%.
Then `CC(C)n1cc(CN2CCCN(C(=O)C3(C)CCOCC3)CC2)cn1`, with -11.5%.
Consider `CC1(C)CN(CC(=O)NCc2ccccc2F)C[C@]1(C)O`, for which the cytotoxicity at 70.5 h was -9.16%.
Then `O=C(CN1CCCC(CO)C1)NCCOc1cccc(Cl)c1` (configuration not stated), with 27.5%; and `O=c1[nH]c2nc(NCC3CCCO3)ncc2c(=O)n1-c1cccc(F)c1` (configuration not stated), with 4.03%; and `Cc1ccccc1-n1nc(C)c(CN(C)C(C)Cc2ccccn2)c1C` (configuration not stated), with 0.642%.
With `CCc1nnc(S(=O)(=O)Cc2cc(Cl)c3c(c2)OCO3)n1C` the figure was -1.18%; with `O=C(c1ccc2c(c1)CCCC2)N1CCCC(n2cncn2)C1` (configuration not stated), -4.56%; with `O=C(C1CC1)N1CCC2(CC1)CNc1ccc(F)cc12`, -10.9%.
Turning to `O=c1ccc(-c2cccs2)nn1CN1CCOCC1`, the cytotoxicity at 70.5 h is -16.7%.
With `Cc1cc(C(=O)Nc2nnn[nH]2)ccc1I` the figure was -5.12%.
With `Cc1ccc(Cn2cc(Br)c(NS(C)(=O)=O)n2)cc1` the figure was -5.3%; with `Cc1nc(=O)c2ccccc2n1C1=CCN(CC(=O)NC(C)C)CC1`, -1.95%.
With `CC(NC(=O)c1ccc(Cl)cc1)c1nnc(SCC(=O)O)n1C` (configuration not stated) the figure was 18.7%; with `O=C(c1cc(C2CC2)[nH]n1)N1CCN(c2nccs2)CC1`, -11.6%.
On to `CCC1=N[C@@]2(CC[C@@H]3CN(CC4CC4)C[C@@H]32)C(=O)N1CC`, for which the cytotoxicity at 70.5 h was -14%.
As for `Cc1nnc([C@@H]2CC[C@@H]3[C@@H](CCN3Cc3ccccn3)O2)o1`, the cytotoxicity at 70.5 h is 10.5%.
With `O=C(c1ccccc1)N1C[C@@H]2CC[C@H](C1)N(Cc1cc(F)ccc1Cl)C2` the figure was 27%; with `Cc1cc(N2CCC(NS(C)(=O)=O)CC2)nc(C(C)C)n1`, -4.49%; with `CC(NC(=O)c1ccnc(C2CC2)n1)C1(N2CCOCC2)CCCC1` (configuration not stated), -4.36%.
With `CCc1nccn1C1CCCN(C(=O)c2cccc3c2OCO3)C1` (configuration not stated) the figure was -16%; with `CC(c1ccc(F)cc1)N1CCN(Cc2ccc(C#N)cc2)CC1` (configuration not stated), -11.6%; with `Cc1ccc(CN2CCS(=O)(=O)C(C)(C)C2)cc1C`, 20.3%.
As for `Cc1oc(-c2cccs2)nc1C(=O)N1CCCC1Cn1cccn1` (configuration not stated), the cytotoxicity at 70.5 h was -6.8%.
Then `CNC(=O)NC(=O)C(C)N1CCC(c2c[nH]c3ccc(OC)cc23)CC1` (configuration not stated), with -2.98%; and `CC(C)C(=O)Nc1cccc(C(=O)Nc2ccccn2)c1`, with -25.2%; and `CCN1CCN(Cc2coc(-c3cccc(F)c3)n2)CC1`, with 20.2%.
On to `CSc1nccc(N2CCC(NCc3ccc4c(c3)OCO4)CC2)n1`, for which the cytotoxicity at 70.5 h worked out at 4.69%.
Turning to `NCC1Cc2cc(-c3nccc(N4CCC(O)CC4)n3)cc(F)c2O1` (configuration not stated), the cytotoxicity at 70.5 h was 6.33%.
On to `c1cn2c(n1)CN(Cc1ccsc1)CC(Cn1cncn1)C2` (configuration not stated), for which the cytotoxicity at 70.5 h is -11.2%.
